Values of other authors in patent US20230210830A1 (ALKEM LABORATORIES LIMITED, priority 2022, published 2023).

Key:
[1] = Strongest Basic
[2] = humans
[3] = system: aneurysmal subarachnoid hemorrhage (aSAH); settings: oral administration; patients after aSAH; Ehrlich et al. 2019

For COCCOC(=O)C1=C(C)NC(C)=C(C(=O)OC(C)C)C1c1cccc([N+](=O)[O-])c1 (stereo not drawn) [nimodipine, isopropyl 2-methoxyethyl 1,4-dihydro-2,6-dimethyl-4-(m-nitrophenyl)-3,5-pyridinedicarboxylate], the pKa [1] is listed as 5.41, the “solubility in organic solvents” value (ethanol, polyethylene glycol 400, dimethyl sulfoxide (DMSO), and chloroform) is listed as “soluble” and the solubility in water (water) is listed as “insoluble”. The bioavailability [2] was 12%, the t1/2 ([2]; after oral administration) was 1.5 h and the clinical outcome [3] was “improved clinical outcome”.
